# Source: US9260439B2, “Dihydropyrrolopyrimidine derivatives” (PFIZER INC., priority 2014, dated 2016)
# Target: truncated PI3Kα (p110α/iSH2 p85α) (Homo sapiens (Human), UniProt P42336)
# Assay: PI3KA_Act fluorescence polarization kinase assay (Ki)
# Type: biochemical
# Conditions: 1 mM ATP
# Summary of the method: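 p110α/iSH2 p85α (0.5 nM) was reacted with 30 μM sonicated PIP2 in 50 mM HEPES pH 7.4, 150 mM NaCl, 5 mM MgCl2, 1 mM DTT and 0.05% CHAPS for 30 min at room temperature, then stopped with EDTA. PIP3 was detected by fluorescence polarization (GST-Grp1 PH domain/TAMRA-PIP3), and Ki came from a Morrison tight-binding fit.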
# truncated PI3Kα (p110α/iSH2 p85α), sequence (P42336 whole entry, the tested form may be a part): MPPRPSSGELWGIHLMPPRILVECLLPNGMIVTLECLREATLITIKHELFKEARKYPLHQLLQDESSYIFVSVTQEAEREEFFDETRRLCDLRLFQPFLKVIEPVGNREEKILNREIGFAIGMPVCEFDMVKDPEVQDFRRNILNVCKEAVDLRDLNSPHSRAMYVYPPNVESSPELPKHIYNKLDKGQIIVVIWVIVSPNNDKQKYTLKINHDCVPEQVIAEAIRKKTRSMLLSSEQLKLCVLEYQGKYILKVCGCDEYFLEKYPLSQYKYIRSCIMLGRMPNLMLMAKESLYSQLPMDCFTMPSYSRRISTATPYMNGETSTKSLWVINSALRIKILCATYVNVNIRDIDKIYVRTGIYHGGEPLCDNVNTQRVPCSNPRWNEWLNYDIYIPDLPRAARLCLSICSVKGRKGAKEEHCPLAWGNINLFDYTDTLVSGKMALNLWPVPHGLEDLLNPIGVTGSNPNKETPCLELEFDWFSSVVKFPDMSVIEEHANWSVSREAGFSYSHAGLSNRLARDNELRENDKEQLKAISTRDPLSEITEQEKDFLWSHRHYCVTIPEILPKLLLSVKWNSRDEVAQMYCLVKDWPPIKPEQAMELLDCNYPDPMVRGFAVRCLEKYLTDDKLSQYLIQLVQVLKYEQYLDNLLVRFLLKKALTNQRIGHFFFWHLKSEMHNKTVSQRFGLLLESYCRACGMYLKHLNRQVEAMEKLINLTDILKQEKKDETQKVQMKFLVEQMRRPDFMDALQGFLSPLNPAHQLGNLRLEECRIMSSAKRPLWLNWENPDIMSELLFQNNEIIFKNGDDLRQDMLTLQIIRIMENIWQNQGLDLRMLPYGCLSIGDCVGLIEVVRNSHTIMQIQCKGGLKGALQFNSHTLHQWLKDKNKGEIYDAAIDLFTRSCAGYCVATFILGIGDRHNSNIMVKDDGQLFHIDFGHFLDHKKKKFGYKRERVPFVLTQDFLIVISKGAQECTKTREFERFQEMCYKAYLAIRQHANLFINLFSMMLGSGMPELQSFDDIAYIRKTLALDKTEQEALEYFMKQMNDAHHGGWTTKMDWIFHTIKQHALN
SMILES,PI3KA_Act Ki,Ki
"CC(C)N1CC[C@](C)(N2CCc3c(-c4cnc(N)nc4)nc(N4CCOCC4)nc32)C1 [Example 420, 5-{7-[(3S)-3-methyl-1-(propan-2-yl)pyrrolidin-3-yl]-2-(morpholin-4-yl)-6,7-dihydro-5H-pyrrolo[2,3-d]pyrimidin-4-yl}pyrimidin-2-amine]",601 pM,–
"C[C@]1(N2CCc3c(-c4cnc(N)nc4)nc(N4CCOCC4)nc32)CCN(CC(F)F)C1 [Example 421, 5-{7-[(3S)-1-(2,2-difluoroethyl)-3-methylpyrrolidin-3-yl]-2-(morpholin-4-yl)-6,7-dihydro-5H-pyrrolo[2,3-d]pyrimidin-4-yl}pyrimidin-2-amine]",71 pM,–
"CC(C)(O)CN1CC[C@](C)(N2CCc3c(-c4cnc(N)nc4)nc(N4CCOCC4)nc32)C1 [Example 422, 1-{(3S)-3-[4-(2-aminopyrimidin-5-yl)-2-(morpholin-4-yl)-5,6-dihydro-7H-pyrrolo[2,3-d]pyrimidin-7-yl]-3-methylpyrrolidin-1-yl}-2-methylpropan-2-ol]",415 pM,–
"COC(=O)C(C)(C)N1CC[C@](C)(N2CCc3c(-c4cnc(N)nc4)nc(N4CCOCC4)nc32)C1 [Example 423, methyl 2-{(3S)-3-[4-(2-aminopyrimidin-5-yl)-2-(morpholin-4-yl)-5,6-dihydro-7H-pyrrolo[2,3-d]pyrimidin-7-yl]-3-methylpyrrolidin-1-yl}-2-methylpropanoate]",445 pM,–
"CC(C)(C(N)=O)N1CC[C@](C)(N2CCc3c(-c4cnc(N)nc4)nc(N4CCOCC4)nc32)C1 [Example 424, 2-{(3S)-3-[4-(2-aminopyrimidin-5-yl)-2-(morpholin-4-yl)-5,6-dihydro-7H-pyrrolo[2,3-d]pyrimidin-7-yl]-3-methylpyrrolidin-1-yl}-2-methylpropanamide]",321 pM,–
"C[C@]1(N2CCc3c(-c4cnc(N)nc4)nc(N4CCOCC4)nc32)CCN(C2CCCC2)C1 [Example 425, 5-{7-[(3S)-1-cyclopentyl-3-methylpyrrolidin-3-yl]-2-(morpholin-4-yl)-6,7-dihydro-5H-pyrrolo[2,3-d]pyrimidin-4-yl}pyrimidin-2-amine]",311 pM,–
"CC1(N2CCc3c(-c4cnc(N)nc4)nc(N4CCOCC4)nc32)CCNCC1.Cl [Example 430, 5-[7-(4-methylpiperidin-4-yl)-2-(morpholin-4-yl)-6,7-dihydro-5H-pyrrolo[2,3-d]pyrimidin-4-yl]pyrimidin-2-amine hydrochloride]",785 pM,–
"CC(C)(C)OC(=O)N1CCC(C)(N2CCc3c(-c4cnc(N)nc4)nc(N4CCOCC4)nc32)CC1 [Example 433, tert-butyl 4-[4-(2-aminopyrimidin-5-yl)-2-(morpholin-4-yl)-5,6-dihydro-7H-pyrrolo[2,3-d]pyrimidin-7-yl]-4-methylpiperidine-1-carboxylate]",24 pM,–
"CS(=O)(=O)N1C[C@H]2C[C@@]2(N2CCc3c(-c4cnc(N)nc4)nc(N4CCOCC4)nc32)C1 [Example 436, 5-{7-[(1S,5R)-3-(methylsulfonyl)-3-azabicyclo[3.1.0]hex-1-yl]-2-(morpholin-4-yl)-6,7-dihydro-5H-pyrrolo[2,3-d]pyrimidin-4-yl}pyrimidin-2-amine]",189 pM,–
"CS(=O)(=O)N1C[C@@H]2C[C@]2(N2CCc3c(-c4cnc(N)nc4)nc(N4CCOCC4)nc32)C1 [Example 437, 5-{7-[(1R,5S)-3-(methylsulfonyl)-3-azabicyclo[3.1.0]hex-1-yl]-2-(morpholin-4-yl)-6,7-dihydro-5H-pyrrolo[2,3-d]pyrimidin-4-yl}pyrimidin-2-amine]",603 pM,–
"CC(C)(C)OC(=O)N1C[C@@H]2C[C@H]1[C@H]2N1CCc2c(-c3cnc(N)nc3)nc(N3CCOCC3)nc21 [Example 438, tert-butyl (1S,4S,5S)-5-[4-(2-aminopyrimidin-5-yl)-2-(morpholin-4-yl)-5,6-dihydro-7H-pyrrolo[2,3-d]pyrimidin-7-yl]-2-azabicyclo[2.1.1] hexane-2-carboxylate]",–,7450 pM
"CS(=O)(=O)N1C[C@@H]2C[C@H]1[C@H]2N1CCc2c(-c3cnc(N)nc3)nc(N3CCOCC3)nc21 [Example 441, 5-{7-[(1S,4S,5S)-2-(methylsulfonyl)-2-azabicyclo[2.1.1]hex-5-yl]-2-(morpholin-4-yl)-6,7-dihydro-5H-pyrrolo[2,3-d]pyrimidin-4-yl}pyrimidin-2-amine]",–,432 pM
"C[C@H]1COCCN1c1nc(-c2cnc(N)nc2)c2c(n1)N([C@H]1C[C@@H](N)C1)CC2.Cl [Example 442, 5-{7-(cis-3-aminocyclobutyl)-2-[(3S)-3-methylmorpholin-4-yl]-6,7-dihydro-5H-pyrrolo[2,3-d]pyrimidin-4-yl}pyrimidin-2-amine hydrochloride]",1349 pM,–
"C[C@H]1COCCN1c1nc(-c2cnc(N)nc2)c2c(n1)N([C@H]1C[C@H](N)C1)CC2.Cl [Example 443, 5-{7-(trans-3-aminocyclobutyl)-2-[(3S)-3-methylmorpholin-4-yl]-6,7-dihydro-5H-pyrrolo[2,3-d]pyrimidin-4-yl}pyrimidin-2-amine hydrochloride]",944 pM,–
"CN[C@H]1C[C@@H](N2CCc3c(-c4cnc(N)nc4)nc(N4CCOC[C@@H]4C)nc32)C1.Cl [Example 444, 5-{7-[cis-3-(methylamino)cyclobutyl]-2-[(3S)-3-methylmorpholin-4-yl]-6,7-dihydro-5H-pyrrolo[2,3-d]pyrimidin-4-yl}pyrimidin-2-amine hydrochloride]",2125 pM,–
"CN[C@H]1C[C@H](N2CCc3c(-c4cnc(N)nc4)nc(N4CCOC[C@@H]4C)nc32)C1.Cl [Example 445, 5-{7-[trans-3-(methylamino)cyclobutyl]-2-[(3S)-3-methylmorpholin-4-yl]-6,7-dihydro-5H-pyrrolo[2,3-d]pyrimidin-4-yl}pyrimidin-2-amine hydrochloride]",993 pM,–
"C[C@H]1COCCN1c1nc(-c2cnc(N)nc2)c2c(n1)N([C@H]1C[C@H](NC(=O)OC(C)(C)C)C1)CC2 [Example 446, tert-butyl (trans-3-{4-(2-aminopyrimidin-5-yl)-2-[(3S)-3-methylmorpholin-4-yl]-5,6-dihydro-7H-pyrrolo[2,3-d]pyrimidin-7-yl}cyclobutyl)carbamate]",433 pM,–
"C[C@H]1COCCN1c1nc(-c2cnc(N)nc2)c2c(n1)N([C@H]1C[C@@H](NC(=O)OC(C)(C)C)C1)CC2 [Example 447, tert-butyl (cis-3-{4-(2-aminopyrimidin-5-yl)-2-[(3S)-3-methylmorpholin-4-yl]-5,6-dihydro-7H-pyrrolo[2,3-d]pyrimidin-7-yl}cyclobutyl)carbamate]",644 pM,–
"C[C@H]1COCCN1c1nc(-c2cnc(N)nc2)c2c(n1)N(C1(C)CNC1)CC2.Cl [Example 450, 5-{7-(3-methylazetidin-3-yl)-2-[(3S)-3-methylmorpholin-4-yl]-6,7-dihydro-5H-pyrrolo[2,3-d]pyrimidin-4-yl}pyrimidin-2-amine hydrochloride]",167 pM,–
"CC(=O)N1CC(N2CCc3c(-c4cnc(N)nc4)nc(N4CCOC[C@@H]4C)nc32)C1 [Example 451, 1-(3-{4-(2-aminopyrimidin-5-yl)-2-[(3S)-3-methylmorpholin-4-yl]-5,6-dihydro-7H-pyrrolo[2,3-d]pyrimidin-7-yl}azetidin-1-yl)ethanone]",595 pM,–
"CC(=O)N1CC(C)(N2CCc3c(-c4cnc(N)nc4)nc(N4CCOC[C@@H]4C)nc32)C1 [Example 452, 1-(3-{4-(2-aminopyrimidin-5-yl)-2-[(3S)-3-methylmorpholin-4-yl]-5,6-dihydro-7H-pyrrolo[2,3-d]pyrimidin-7-yl}-3-methylazetidin-1-yl)ethanone]",90 pM,–
"CC(C)C(=O)N1CC(N2CCc3c(-c4cnc(N)nc4)nc(N4CCOC[C@@H]4C)nc32)C1 [Example 453, 1-(3-{4-(2-aminopyrimidin-5-yl)-2-[(3S)-3-methylmorpholin-4-yl]-5,6-dihydro-7H-pyrrolo[2,3-d]pyrimidin-7-yl}azetidin-1-yl)-2-methylpropan-1-one]",973 pM,–
"C[C@H]1COCCN1c1nc(-c2cnc(N)nc2)c2c(n1)N(C1CN(C(=O)C(C)(C)O)C1)CC2 [Example 454, 1-(3-{4-(2-aminopyrimidin-5-yl)-2-[(3S)-3-methylmorpholin-4-yl]-5,6-dihydro-7H-pyrrolo[2,3-d]pyrimidin-7-yl}azetidin-1-yl)-2-hydroxy-2-methylpropan-1-one]",387 pM,–
"C[C@H]1COCCN1c1nc(-c2cnc(N)nc2)c2c(n1)N(C1(C)CN(C(=O)C(C)(C)O)C1)CC2 [Example 455, 1-(3-{4-(2-aminopyrimidin-5-yl)-2-[(3S)-3-methylmorpholin-4-yl]-5,6-dihydro-7H-pyrrolo[2,3-d]pyrimidin-7-yl}-3-methylazetidin-1-yl)-2-hydroxy-2-methylpropan-1-one]",187 pM,–
"C[C@H]1COCCN1c1nc(-c2cnc(N)nc2)c2c(n1)N(C1(C)CN(C(=O)C(C)(C)N)C1)CC2.Cl [Example 456, 2-amino-1-(3-{4-(2-aminopyrimidin-5-yl)-2-[(3S)-3-methylmorpholin-4-yl]-5,6-dihydro-7H-pyrrolo[2,3-d]pyrimidin-7-yl}-3-methylazetidin-1-yl)-2-methylpropan-1-one hydrochloride]",63 pM,–
"CCC(=O)NCC(=O)N1CC(N2CCc3c(-c4cnc(N)nc4)nc(N4CCOC[C@@H]4C)nc32)C1 [Example 457, N-[2-(3-{4-(2-aminopyrimidin-5-yl)-2-[(3S)-3-methylmorpholin-4-yl]-5,6-dihydro-7H-pyrrolo[2,3-d]pyrimidin-7-yl}azetidin-1-yl)-2-oxoethyl]propanamide]",691 pM,–
